US10517835B2, “Composition and methods of treatment” (Blueberry Therapeutics Limited, priority 2015, dated 2019)
“Also recorded” adds a separate entry of the source. Structures can show the parent of a compound that is named as a salt.

Tests used:
[1] = tested on: Trychophyton mentagrophytes; assay: Paper disk zone of clearance assay on YEPD agar; type: cell-based; settings: 4 days 30° C.
Method: The antifungal activity of a range of concentrations of terbinafine, encompassing the concentrations range passing through the nails in the Franz cells, was tested. Terbinafine was diluted to the following concentrations in double distilled water: 60, 6, 0.6 and 0.06 μg/ml. 40 μl of each terbinafine solution and double distilled water alone was spotted onto a 10 mm sterile 3 MM paper disk. Each disk was placed on a lawn of Trychophyton mentagrophytes plated on yeast extract peptone dextrose (YEPD) agar plates. T. mentagrophytes was used as a laboratory fungal strain due to its relevance to key pathogenic species in onychomycosis (fungal nail infection). The agar plates were inverted and incubated at 30° C. for 4 days. The plates were photographed and analysed for zones of clearance, which indicate antifungal activity.

[2] = Nanoparticle formation, number and size on Malvern Instruments Nanosight LM10; type: physicochemical; settings: 0.1 mg/ml terbinafine in 30% ethanol, with or without 0.3 mg/ml PHMB, room temperature at least 24 hours; for particle number: hydrochloride
Method: Terbinafine was mixed at 0.1 mg/ml in 30% ethanol and incubated at room temperature for at least 24 hours up to a maximum of 47 days. Another formulation was prepared by mixing terbinafine at 0.1 mg/ml in 30% ethanol and then adding PHMB to 0.3 mg/ml. The formulation was incubated at room temperature for at least 24 hours up to a maximum of 112 days. The number and size of any nanoparticles formed were measured using a Malvern Instruments Nanosight LM10.

particle size range [2]: 50-800 nm
particle number [2]: 0.5×10^8 particles/ml
particle number ([2]; listed as terbinafine alone): Approximately 0.5×10^8 particles/ml
SMILES: CN(C/C=C/C#CC(C)(C)C)Cc1cccc2ccccc12 [terbinafine, terbinafine hydrochloride]
zone of clearance ([1]; 40 μl of 0.06 μg/ml solution on 10 mm disk): no zone of clearance
zone of clearance ([1]; 40 μl of 0.6 μg/ml solution on 10 mm disk, hydrochloride): clear zones of clearance; also recorded: Progressively smaller zones of clearance
zone of clearance ([1]; 40 μl of 6 μg/ml solution on 10 mm disk, hydrochloride): clear zones of clearance; also recorded: Progressively smaller zones of clearance
zone of clearance ([1]; 40 μl of 60 μg/ml solution on 10 mm disk, hydrochloride): clear zones of clearance; also recorded: largest zone of clearance
